The source of these data is PMC3466195, “Potassium Acts as a GTPase-Activating Element on Each Nucleotide-Binding Domain of the Essential Bacillus subtilis EngA” (PLoS ONE, 2012).

The target in test [1] is T1, B. subtilis EngA (Bacillus subtilis, UniProt P50743).
T1 construct: full-length EngA (named hereafter as EngA) and its two shortened EngA variants, GD1 and GD2-KH were overexpressed in E. coli; His-tag (from pET15b; purified on Ni-IDA) (N); made in house; host or cells: E. coli C41(DE3)
The format is biochemical. The method, then:
(§1) GTPase activities were determined using a coupled-enzymatic assay containing pyruvate kinase and lactate dehydrogenase as previously described. The proteins (2 µM or 8 µM of EngA in the presence of KCl or NaCl, respectively, and 4 µM for GD1 and 12.5 µM for GD2-KH) and the coupled assay system containing 50 mM Tris/HCl pH 8, 4 mM phosphoenol pyruvate, 0.4 mM NADH, 1 mM MgCl2, 30 µg pyruvate kinase and 15 µg lactate dehydrogenase, were mixed into a quartz cuvette (final volume of 750 µl) in the presence of GTP (up to 1 mM) and salts, either KCl or NaCl, as indicated in the figure legends. When the GTPase and XTPase activities of the wild-type EngA and the single point mutants were studied (Fig. 7), the assay medium (final volume of 500 µl) contained 3 mM MgCl2 and the pyruvate kinase was increased to 120 µg to ensure an immediate conversion of XDP back into XTP. The reaction was started by adding 3.2 µM or 0.8 µM of wild-type EngA or single point mutants in the absence or presence of 300 mM K^+, respectively. GTP or XTP hydrolysis was monitored by following the change in absorbance at 340 nm upon conversion of NADH to NAD^+, for 10 min at 37°C, using either a Hitachi U3350 or a Safas UVmc^2 spectrophotometer. The slope measured (ΔDO/min) was used to calculate the activity of the protein taking into account the εNADH340nm = 6220 l.mol^−1.cm^−1. Control experiments were systematically performed in the absence of nucleotides (protein alone) or in the absence of proteins (nucleotides alone) and the activities measured in all cases were negligible. Between many different EngA preparations, the specific activities measured at 1 mM GTP varied between 100–130 nmoles/min/mg protein.

The next test has as its system T. maritima EngA. The settings on record: cited from earlier work.
The next test has as its target T2, GD1 (Bacillus subtilis, UniProt P50743).
T2 construct: two shortened EngA variants that only contain GD1 or GD2-KH; His-tag (from pET15b; purified on Ni-IDA) (N); made in house; host or cells: E. coli C41(DE3)
T2 sequence (P50743 4-167 limits assumed): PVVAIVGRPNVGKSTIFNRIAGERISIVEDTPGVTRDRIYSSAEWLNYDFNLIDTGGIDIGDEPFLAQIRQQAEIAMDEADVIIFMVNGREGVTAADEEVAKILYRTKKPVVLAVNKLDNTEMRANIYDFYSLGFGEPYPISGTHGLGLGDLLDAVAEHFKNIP
The test can be described thus: GTP hydrolysis coupled-enzymatic assay. The format is biochemical. The method, then: as §1

Another test concerns the target T3, GD2-KH (Bacillus subtilis, UniProt P50743).
T3 construct: two shortened EngA variants that only contain GD1 or GD2-KH; His-tag (from pET15b; purified on Ni-IDA) (N); made in house; host or cells: E. coli C41(DE3)
T3 sequence (P50743 173-436): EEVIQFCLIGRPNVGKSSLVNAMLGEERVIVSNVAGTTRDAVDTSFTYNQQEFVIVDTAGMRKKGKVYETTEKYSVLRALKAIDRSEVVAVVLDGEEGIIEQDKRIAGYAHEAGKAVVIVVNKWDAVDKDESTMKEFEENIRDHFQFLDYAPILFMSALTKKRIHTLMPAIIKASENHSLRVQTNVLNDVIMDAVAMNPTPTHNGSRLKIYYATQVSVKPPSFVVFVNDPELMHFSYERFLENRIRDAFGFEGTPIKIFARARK
The test can be described thus: GTP hydrolysis coupled-enzymatic assay. The test is classed as biochemical. The method, then: as §1

Test [2] has as its target T4, B. subtilis EngA (Bacillus subtilis, UniProt P50743).
T4 construct: full-length EngA (named hereafter as EngA) and its two shortened EngA variants, GD1 and GD2-KH were overexpressed in E. coli; His-tag (from pET15b; purified on Ni-IDA) (N); made in house; host or cells: E. coli C41(DE3)
T4 sequence (P50743 1-436): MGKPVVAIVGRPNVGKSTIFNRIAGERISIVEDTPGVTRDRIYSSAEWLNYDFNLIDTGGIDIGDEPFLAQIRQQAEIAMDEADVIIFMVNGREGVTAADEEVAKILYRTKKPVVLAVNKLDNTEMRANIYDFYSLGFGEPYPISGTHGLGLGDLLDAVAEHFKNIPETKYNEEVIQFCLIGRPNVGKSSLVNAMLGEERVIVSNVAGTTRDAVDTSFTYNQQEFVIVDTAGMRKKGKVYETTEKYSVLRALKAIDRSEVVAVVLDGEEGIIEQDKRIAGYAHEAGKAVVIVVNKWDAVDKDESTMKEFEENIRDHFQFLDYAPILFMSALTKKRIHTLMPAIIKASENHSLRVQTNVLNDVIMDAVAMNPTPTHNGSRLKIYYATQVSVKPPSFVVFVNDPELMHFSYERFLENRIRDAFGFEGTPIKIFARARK
Nature of the test: Fluorescence resonance energy transfer between tryptophan residues and MANT moiety. The format is binding. The settings on record: FRET Trp to MANT. The method, then: Fluorescence measurements were performed essentially as described previously for the unmodified nucleotides or the N-methylanthraniloyl-GDP (MANT-GDP) analogue using a PTI QuantaMaster 4 spectrofluorimeter, [62]. Dissociation constants (K D) for nucleotides were calculated by monitoring intrinsic tryptophan fluorescence variation using 295 nm excitation wavelength, with a slit width of 2 nm, and scanning emission fluorescence between 310 and 400 nm (for the unmodified nucleotide) or 400 and 500 nm (for MANT-GDP), with a slit width of 4 nm. For the intrinsic tryptophan fluorescence, inner filter effect was corrected using N-Acetyltryptophanamide (NATA) as a reference. […] The fluorescence was normalized respective to the integrated value of the fluorescence peak obtained in the absence of unmodified nucleotide (between 310 and 400 nm) or MANT-GDP (between 400 and 500 nm). The data were fitted using the GraFit 5.0.11 software with the following equation: [drawing 1] where F is the relative fluorescence intensity in the presence of nucleotide, F min is the relative fluorescence in the absence of nucleotide, F max is the fluorescence intensity at saturating concentration of nucleotide, L is the nucleotide concentration, E is the protein concentration and K D is the dissociation constant of the protein-nucleotide complex.

By Kd is commonly meant the constant that tells how readily two partners part at equilibrium.

Take `[K+]` [K^+, potassium]: the “increase in catalytic efficiency of EngA” value on B. subtilis EngA [1] (300 mM K+ vs absence of K+) turned out to be 20 fold. Moreover, the “stimulation of the GTPase activity of EngA” value on B. subtilis EngA [1] (1 M KCl, 1 mM GTP) was ~15 fold. In addition, the GTPase activity at B. subtilis EngA [1] (EngA, 0.4 M KCl) was ~5 min⁻¹; with T. maritima EngA (0.4 M KCl) it was 0.11 min⁻¹; on GD1 (GD1, 1M KCl) it was ~3.4 min⁻¹; on GD2-KH (GD2-KH, 1M KCl) it was ~0.45 min⁻¹. The “stimulation of GTPase activity by K+” value in the test with T. maritima EngA (T. maritima EngA) was “about 4 fold”. Besides, the “K+ concentration giving maximal GTPase activity” value on GD1 (GD1) was 500 mM. Also, the “increase of GTPase activity upon K+ binding” value at GD2-KH (GD2 domain) is listed as ~100 fold.

Turning to `CNc1ccccc1C(=O)O[C@H]1[C@@H](O)[C@H](n2cnc3c(=O)[nH]c(N)nc32)O[C@@H]1COP(=O)(O)OP(=O)(O)O` [mant-GDP, N-methylanthraniloyl-GDP], the figures for the Kd at B. subtilis EngA [2] (300 mM KCl) and on B. subtilis EngA [2] (no salt) were 2900 ± 200 nM and 3100 ± 200 nM, respectively.

Consider `[Na+]` [sodium], for which the “effect of salt on the GTPase activity of EngA” value at B. subtilis EngA [1] (K+ replaced by other monovalent cation, 1 mM GTP) is given as “no effect”.
